Experiments:
[1] = Retention of activity after storage (chemical stability); assay type: physicochemical; details: storage for 15 months as a solid at 4° C. or in solution frozen at −20° C.
[2] = test system: circular muscle strips from the guinea pig stomach; experiment: Nerve mediated muscle responses to electrical field stimulation (EFS) in circular muscle strips, organ bath; assay type: cell-based; details: 10 μM in organ bath, EFS after 20 min
Procedure: The effects of 5-BOIP and homo-5-BOIP were tested in tissue preparations from the guinea pig stomach. After sacrificing the guinea pigs, the stomach was removed and immediately placed in ice-cold oxygenated Krebs solution. The stomach was opened along the greater curvature, thoroughly washed and pinned mucosal side up in Sylgard-coated Petri dishes. The mucosa was then carefully removed. Muscle strips (1.5 cm^2) were cut parallel to the circular muscle and mounted in 25 ml organ baths where they were maintained in oxygenated Krebs solution at 37° C. One edge of each muscle strip was attached to an isometric tension transducer (PowerLab, AD Instruments, Spechbach, Germany).
After mounting in the organ baths, tissues were equilibrated with a preload set at 15 mN for 45 min. Then, electrical field stimulations (EFS) were performed (constant current, 100 mA, pulse frequency 10 Hz, pulse width of 0.5 ms, 10 s). With the chosen parameters for the EFS, only the neuronal tissue in the preparation was stimulated without having a direct effect on the smooth muscle. […]
After reaching stable responses to the EFS, 5-BOIP and homo-5-BOIP were added to the organ baths at a final concentration of 10 μM. […] The responses to the EFS under control conditions and in the presence of 5-BOIP or homo-5-BOIP were analyzed later.

5-HT1P receptor = experiment: Neuronal tissue assay: voltage-sensitive dye neuroimaging of human submucous plexus preparations; assay type: cell-based
Procedure: The effect of 5-BOIP was tested on freshly dissected submucous plexus preparations from surgical resections of human intestine. Samples were taken from macroscopically unaffected areas. Procedures were approved by the ethics committees of the Technical University Munich (1748/07 and 2595/09). Segments were dissected in ice cold Krebs solution to obtain mucosa/submucosa preparations containing the inner submucous plexus preparations for the imaging experiments.
In order to image the activity of enteric neurons using voltage sensitive dyes, the human submucous plexus preparations were placed into a recording chamber which was continuously perfused at 37° C. with oxygenated Krebs solution containing 117 mM NaCl, 4.7 mM KCl, 1.2 mM MgCl2, 1.2 mM NaH2PO4, 20 mM NaHCO3, 2.5 mM CaCl2, 11 mM glucose (pH 7.4). The neuroimaging set-up allowed to monitor membrane potential changes and changes in intracellular Ca^2+ [Ca]i transients in all cells of a given ganglion. To study membrane potential changes, individual ganglia were stained with the voltage-sensitive dye Di-8-ANEPPS (20 μM; Molecular Probes, Eugene, Oreg., USA) via intraganglionic application through a microejection pipette.
The imaging experiments were conducted on an inverted microscope (Zeiss Axio Observer.A1; Munich, Germany) equipped with the NeuroCCD system, consisting of a fast CCD camera (80×80 pixels) and the Neuroplex software for data acquisition and analysis (RedShirtImaging, Decatur, Ga., USA). To detect Di-8-ANEPPS a modified Cy3 filterset (545±15 nm excitation, 565 nm dichroic mirror, 580 nm barrier; Ahf Analysentechnik, Tübingen, Germany) was used. A green LED (LE T S2W, Osram, Munich, Germany) was used to excite Di-8-ANEPPS. Visualization of the ganglia and recording of signals were done with a ×100 or ×40 objective (NA=1.35, Olympus, Hamburg, Germany). The imaging set-up allowed to measure relative changes in the fluorescence (ΔF/F), which is for Di-8-ANEPPS linearly related to changes in the membrane potential. Frame rate to detect action potentials was 1 kHz. The overlay of signals and ganglion images allowed the analysis of the responses of individual cells.
5-BOIP was prepared at a stock solution of 100 mM. For controlled local application fine glass capillaries were filled with 50 μM 5-BOIP and positioned just above a ganglion. 5-BOIP was microejected for 400 ms via pressure pulse onto the ganglion. […] Since G protein coupled receptor activation takes several seconds, the recordings were started after a period of 2 s. In preliminary experiments it was verified that there was no immediate effect of 5-BOIP that would begin with the ejection application or directly thereafter.
The specificity of 5-BOIP effects was tested against the 5-HT1 antagonist 5-hydroxytryptophan dipeptide (5-HTP-DP). […]

mouse isolated colon = details: cited from earlier work

SMILES | activity after storage [1] | effect on the "on contraction" in response to the EFS [2] | action potential (spike) frequency (5-HT1P receptor; 5-BOIP alone, 50 μM in capillary microejected 400 ms onto ganglion, median (10%/90%)) | effect on human enteric nerve cells when applied to the ganglia (5-HT1P receptor; 5-BOIP applied to ganglia, human submucous plexus) | action potential (spike) frequency in presence of 5-HT1P receptor antagonist 5-HTP-DP (5-HT1P receptor; 5-BOIP during 20 min bath application of 10 μM 5-HTP-DP, median (10%/90%)) | action potential (spike) frequency after washing out the antagonist 5-HTP-DP (5-HT1P receptor; 5-BOIP freshly added after washout of 5-HTP-DP, median (10%/90%)) | effect on threshold pressure required to trigger the peristaltic reflex (mouse isolated colon) | effect on peristalsis (mouse isolated colon; concentration dependent)
c1ccc(COc2ccc3[nH]cc(CCC4CCNCC4)c3c2)cc1 [5-BOIP, 5-(benzyloxy)-3-(2-(piperidin-4-yl)ethyl)-1H-indole] | retains activity | clearly reduced | 1.6 (1.0/2.1) Hz | induces action potentials | 0 (0/0.5) Hz | 1.0 (0.5/1.6) Hz |  | 
Oc1ccc2[nH]cc(CCC3CCNCC3)c2c1 [5-OHIP, 5-hydroxyindalpine] | would lose its activity |  |  |  |  |  | reduce the threshold pressure | accelerate peristalsis
c1ccc(COc2ccc3[nH]cc(CCCC4CCNCC4)c3c2)cc1 [homo-5-BOIP, 5-(benzyloxy)-3-(3-[piperidin-4-yl]propyl)-1H-indole] |  | clearly reduced |  |  |  |  |  | 

From patent US9637471B2, “Hydroxyindalpine derivatives and their medical use” (Technische Universitat Munchen, priority 2013, dated 2017)
